Assays:
[1] = tested on: OA cartilage; assay: IL-1 effect on gene expression in OA cartilage explant cultures (QPCR); type: cell-based, human; settings: IL-1 1 ng/ml, 24-72 h, OA cartilage explants
Experimental: FIG. 7: IL-1 inhibited F-spondin and aggrecan expression in OA cartilage. OA cartilage was stimulated with IL-1 (1 ng/ml) for 24-72 h and total RNA was isolated and QPCR was performed.
Since IL-1 β appears to play a significant role in the pathogenesis of OA, its effects on F-spondin expression by QPCR in cartilage explants cultures was studied. Briefly, knee articular cartilage from patients undergoing knee replacement surgery was obtained and cut in 3-mm discs, and four to six discs (˜100 mg) were placed in organ culture in 2 ml of Ham's F-12 medium+0.1% human albumin (endo toxin fr) for 24-72 h, in the presence and absence of IL-1beta (1 ng/ml). At the end of the experiment the cartilage was frozen immediately in liquid nitrogen for RNA extraction.

[2] = tested on: chick chondrocytes; assay: Alkaline phosphatase (AP) activity in RA-stimulated chick chondrocyte cultures; type: cell-based; settings: RA 3 days
Experimental: FIG. 16. Inhibition of F-spondin decreases AP activity in RA stimulated cultures. Chick chondrocytes were treated with RA at 100 nm for 5 days with and without F-spondin antibodies and AP activity assessed. Antibodies with specificities to the spondin domain (medium grey) and TSR domain (black) inhibited AP activity compared to ctrl (noAb) (light grey). Note the greater inhibitory effect of the TSR domain antibody. * p=<0.05 versus no ab ctrl.
FIG. 17. The pro-maturation effect of F-spondin is not inhibited following neutralization of TGF-β activity by coculture with Latency Associated Peptide (LAP). AP activity was determined in chick chondrocyte cultures by ELISA following RA stimulation for 3 days. Cultures were either ctrl (RA only) or RA with either F-Spondin (1 ug/ml) or LAP (10 or 100 ng/ml), or RA with F-Spondin (1 ug/ml) and LAP (10 or 100 ng/ml) in combination.
FIG. 18. Blocking αvβ3 integrin inhibits the promaturation effect of F-spondin. Chondocyte cultures were transfected as previously and stimulated with RA for 3 days in the presence of IgG control, or αvβ3 blocking antibodies prior to assay for AP activity. Inhibition of αvβ3 led to a ˜50% suppression of F-spondin-induced AP activity but had no effect on baseline AP activity (vector ctrl).
FIGS. 23A, 23B and 23C. F-spondin regulation of chondrocyte maturation requires the TSR domain. (A) Schematic representation of F-spondin protein domains and plasmid constructs encoding either full length (FS1) or TSR domain truncated (FS6) cDNAs. (B) Relative AP activity of FS or pcDNA3 control transfected cultures after 5 days treatment. (C) Relative AP activity following inhibition of F-spondin protein domains. Upper sternal chondrocytes were stimulated with 0, 10, 35 or 100 nM retinoic acid (RA) for 5 days in culture. […]
We next determined that the pro-maturation effect of F-spondin is not inhibited following neutralization of TGF-β activity by coculture with Latency Associated Peptide (LAP) (R&D Systems, Cat No 246-LP/CF). […] AP activity was determined in chick chondrocyte cultures by ELISA following RA stimulation for 3 days. […]

[3] = tested on: embryonic chick chondrocytes; assay: TGF-β treatment of embryonic chick chondrocytes, maturation marker expression (quantitative PCR); type: cell-based; settings: TGF-β 5 days
Experimental: FIGS. 24A and 24B. TGF-β enhances chondrocyte maturation and is required for F-spondin mediated induction of AP. (A) Relative gene expression of chondrocyte maturation markers following TGF-β treatment. Upper sternal chondrocytes were treated with TGF-β at the indicated doses for 5 days and mRNA levels determined by quantitative PCR. Values are expressed relative to untreated controls. (B) Effect of TGF-β depletion on F-spondin-mediated induction of AP. The conditioned media of FS1 or pcDNA3 transfected chondrocytes was harvested and immunodepleted of TGF-β or left untreated, and added to separate cultures in the presence of RA. […] Values represent mean expression levels of triplicate samples relative to untreated supernatants from vector ctrl cultures (=1).
We have previously reported that F-spondin can regulate the synthetic activity of articular chondrocytes via activation of latent TGF-β (Attur, M et al (2009) Faseb J 23:79-89). Since the TSR domain harbors conserved TGF-β binding motifs, we proposed that F-spondin-mediated enhancement of chondrocyte maturation similarly occurs via TGF-β. […] To determine whether […] is required for F-spondin induction of AP, we transfected chick chondrocytes with FS1 or control vector cDNA and harvested conditioned media supernatants after 48 h. Supernatants were then depleted of TGF-β by coincubation with anti-TGF-b antibody and added to separate cultures of chick chondrocytes in the presence of retinoic acid for 24 h.

Substance: IL-1: pro-inflammatory cytokine
- expression of F-spondin [1]: significantly inhibited
- expression of aggrecan [1]: significantly inhibited

Substance: LAP: Latency Associated Peptide (R&D Systems), neutralizes TGF-β activity
- effect on AP activity increase seen with F-spondin alone ([2]; LAP 10-100 ng/ml with F-Spondin 1 ug/ml): did not significantly alter
- chondrocyte maturation ([2]; LAP 10-100 ng/ml): accelerates maturation

Substance: TGF-β
- expression of AP [3]: dose dependent increases
- expression of F-spondin [3]: dose dependent increases
- expression of MMP-13 [3]: dose dependent increases
